Source: patent publication EP3046573B1, “AMYLIN ANALOGUES” (Zealand Pharma A/S, priority 2013, dated 2015)
Numbered stars: 1 amine (or outer) side, 2 acyl side, 3 side chain; on linkers, the order of the positions; unused ones are H or OH. Bridge positions count the residues as written; N and C are the ends. Square brackets hold non-standard residues; d marks the D form. Peptide text beside a SMILES is read from it. * marks the point of attachment. C20 diacid = O=C(O)CCCCCCCCCCCCCCCCCCC(=O)*; γGlu = O=C(O)[C@H](CCC(=O)[*:2])N[*:1]; NMeI = CC[C@H](C)[C@H](NC)C(=O)O; Sar = CNCC(=O)O

Assays:
[1] = Solubility assessment (turbidity absorbance at 325 nm); type: physicochemical; conditions: stock 2 mg/ml diluted 1:1, ambient temperature (typically 25°C), n=1; for Solubility, Acetate buffer pH 4: 100 mM acetate buffer pH 4.0; for Solubility, Acetate buffer pH 5: 100 mM acetate buffer pH 5.0; for Solubility, Histidine buffer pH 6: 100 mM histidine buffer pH 6.0; for Solubility, Histidine buffer pH 7: 100 mM histidine buffer pH 7.0; for Solubility, Phosphate buffer pH 6: 100 mM phosphate buffer pH 6.0; for Solubility, Phosphate buffer pH 7: 100 mM phosphate buffer pH 7.0; for Solubility, Phosphate buffer pH 7.5: 100 mM phosphate buffer pH7.5
Method in brief: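 Peptide stock (2 mg/ml) in water acidified to pH 2.5 with HCl was diluted 1:1 into 100 mM acetate (pH 4.0, 5.0), histidine (pH 6.0, 7.0) or phosphate (pH 6.0, 7.0, 7.5) buffer. A280 and A325 were read at about 25°C, n=1. A325 ≤ 0.02 meant solubility ≥ 1 mg/ml.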

Sprague Dawley (SD) rats = experiment: Acute food intake and body weight in normal Sprague Dawley rats; type: in vivo; conditions: vehicle-corrected, dose 30 nmol/kg sc, once; for Body weight loss (%) after 96 hours: mean ± SEM, n = 8
Method in brief: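 Normal male-unspecified SD rats, n = 8 per group, given a single s.c. peptide dose of 30 nmol/kg just before dark phase, with vehicle and positive control groups. Food intake recorded at 0, 4, 7, 10, 24, 48, 72 and 96 h; body weight daily; means ± SEM.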

Structure (SMILES) | Solubility, Acetate buffer pH 4 [1] | Solubility, Acetate buffer pH 5 [1] | Solubility, Histidine buffer pH 6 [1] | Solubility, Histidine buffer pH 7 [1] | Solubility, Phosphate buffer pH 6 [1] | Solubility, Phosphate buffer pH 7 [1] | Solubility, Phosphate buffer pH 7.5 [1] | Food intake inhibition (%) after 48 hours (Sprague Dawley (SD) rats) [%] | Body weight loss (%) after 96 hours (Sprague Dawley (SD) rats) [%]
CC[C@H](C)[C@@H](C(=O)N[C@@H](CC(C)C)C(=O)N[C@@H](CO)C(=O)N[C@@H](CO)C(=O)N[C@H](C(=O)N[C@@H](CC(=O)O)C(=O)N[C@H](C(=O)NCC(=O)N[C@@H](CO)C(=O)N[C@@H](CC(=O)O)C(=O)N[C@H](C(=O)N1CCC[C@H]1C(N)=O)[C@@H](C)O)C(C)C)[C@@H](C)O)N(C)C(=O)[C@H](C)NC(=O)CN(C)C(=O)[C@H](Cc1ccccc1)NC(=O)[C@H](CO)NC(=O)[C@H](CO)NC(=O)[C@H](CCCNC(=N)N)NC(=O)[C@H](Cc1c[nH]cn1)NC(=O)[C@H](CC(C)C)NC(=O)[C@H](Cc1ccccc1)NC(=O)[C@H](CCC(=O)O)NC(=O)[C@H](C)NC(=O)[C@H](CC(C)C)NC(=O)[C@H](CCCNC(=N)N)NC(=O)[C@H](CC(=O)O)NC(=O)[C@@H](NC(=O)[C@H](C)NC(=O)[C@@H]1CSSC[C@H](NC(=O)[C@H](CCCNC(=N)N)NC(=O)CC[C@H](NC(=O)CCCCCCCCCCCCCCCCCCC(=O)O)C(=O)O)C(=O)N2CCC[C@H]2C(=O)N[C@@H]([C@@H](C)O)C(=O)N[C@@H](C)C(=O)N[C@@H]([C@@H](C)O)C(=O)N1)[C@@H](C)O [Compound 172, [19CD]-isoGlu-RC()PTATC()ATDRLAEFLHRSSF-Gly(Me)-A-Ile(Me)-LSSTDVGSDTP-NH2] ({C20 diacid-γGlu}-RCPTATCATDRLAEFLHRSSF[Sar]A[NMeI]LSSTDVGSDTP-NH2; disulfide 2-7) | SS (SS indicates solubility ≥ 1mg/ml) | SS (SS indicates solubility ≥ 1mg/ml) | SS (SS indicates solubility ≥ 1mg/ml) | SS (SS indicates solubility ≥ 1mg/ml) | SS (SS indicates solubility ≥ 1mg/ml) | SS (SS indicates solubility ≥ 1mg/ml) | SS (SS indicates solubility ≥ 1mg/ml) | 99 | 13 ± 1.1
CC[C@H](C)[C@@H](C(=O)N[C@@H](CC(C)C)C(=O)N[C@H](CO)C(=O)N[C@@H](CO)C(=O)N[C@H](C(=O)N[C@@H](CC(N)=O)C(=O)N[C@H](C(=O)NCC(=O)N[C@@H](CO)C(=O)N[C@@H](CC(N)=O)C(=O)N[C@H](C(=O)N1CCC[C@H]1C(N)=O)[C@@H](C)O)C(C)C)[C@@H](C)O)N(C)C(=O)[C@H](C)NC(=O)CN(C)C(=O)[C@@H](Cc1ccccc1)NC(=O)[C@H](CC(N)=O)NC(=O)[C@H](CC(N)=O)NC(=O)[C@H](CO)NC(=O)[C@H](CO)NC(=O)[C@H](CCCNC(=N)N)NC(=O)[C@H](Cc1c[nH]cn1)NC(=O)[C@H](CC(C)C)NC(=O)[C@H](Cc1ccccc1)NC(=O)[C@H](CCC(=O)O)NC(=O)[C@H](C)NC(=O)[C@H](CC(C)C)NC(=O)[C@H](CCCNC(=N)N)NC(=O)[C@H](CCC(N)=O)NC(=O)[C@@H](NC(=O)[C@H](C)NC(=O)[C@@H]1CSSC[C@H](NC(=O)[C@H](CCCCN)NC(=O)CC[C@H](NC(=O)CCCCCCCCCCCCCCCCCCC(=O)O)C(=O)O)C(=O)N[C@@H](CC(N)=O)C(=O)N[C@@H]([C@@H](C)O)C(=O)N[C@@H](C)C(=O)N[C@@H]([C@@H](C)O)C(=O)N1)[C@@H](C)O [Compound 72, [19CD]-isoGlu-KC()NTATC()ATQRLAEFLHRSSNN-DPhe-Gly(Me)-A-Ile(Me)-L-DSer-STNVGSNTP] ({C20 diacid-γGlu}-KCNTATCATQRLAEFLHRSSNN[dF][Sar]A[NMeI]L[dS]STNVGSNTP-NH2; disulfide 2-7) | SS (SS indicates solubility ≥ 1mg/ml) | SS (SS indicates solubility ≥ 1mg/ml) | SS (SS indicates solubility ≥ 1mg/ml) | SS (SS indicates solubility ≥ 1mg/ml) | SS (SS indicates solubility ≥ 1mg/ml) | SS (SS indicates solubility ≥ 1mg/ml) | SS (SS indicates solubility ≥ 1mg/ml) | 99 | 12 ± 1.2
CC[C@H](C)[C@@H](C(=O)N[C@@H](CC(C)C)C(=O)N[C@@H](CO)C(=O)N[C@@H](CO)C(=O)N[C@H](C(=O)N[C@@H](CC(=O)O)C(=O)N[C@H](C(=O)NCC(=O)N[C@@H](CO)C(=O)N[C@@H](CC(=O)O)C(=O)N[C@H](C(=O)N1CCC[C@H]1C(N)=O)[C@@H](C)O)C(C)C)[C@@H](C)O)N(C)C(=O)[C@H](C)NC(=O)CN(C)C(=O)[C@H](Cc1ccccc1)NC(=O)[C@H](CO)NC(=O)[C@H](CO)NC(=O)[C@H](CO)NC(=O)[C@H](CO)NC(=O)[C@H](CCCNC(=N)N)NC(=O)[C@H](Cc1c[nH]cn1)NC(=O)[C@H](CC(C)C)NC(=O)[C@H](Cc1ccccc1)NC(=O)[C@H](CCC(=O)O)NC(=O)[C@H](C)NC(=O)[C@H](CC(C)C)NC(=O)[C@H](CCCNC(=N)N)NC(=O)[C@H](CCC(N)=O)NC(=O)[C@@H](NC(=O)[C@H](C)NC(=O)[C@@H]1CSSC[C@H](NC(=O)[C@H](CCCNC(=N)N)NC(=O)CC[C@H](NC(=O)CCCCCCCCCCCCCCCCCCC(=O)O)C(=O)O)C(=O)N[C@@H](CC(N)=O)C(=O)N[C@@H]([C@@H](C)O)C(=O)N[C@@H](C)C(=O)N[C@@H]([C@@H](C)O)C(=O)N1)[C@@H](C)O [Compound 73, [19CD]-isoGlu-RC()NTATC()ATQRLAEFLHRSSSSF-Gly(Me)-A-Ile(Me)-LSSTDVGSDTP-NH2] ({C20 diacid-γGlu}-RCNTATCATQRLAEFLHRSSSSF[Sar]A[NMeI]LSSTDVGSDTP-NH2; disulfide 2-7) | SS (SS indicates solubility ≥ 1mg/ml) | II (II indicates solubility ≤ 1 mg/ml) | SS (SS indicates solubility ≥ 1mg/ml) | SS (SS indicates solubility ≥ 1mg/ml) | SS (SS indicates solubility ≥ 1mg/ml) | SS (SS indicates solubility ≥ 1mg/ml) | SS (SS indicates solubility ≥ 1mg/ml) | 93 | 11 ± 1.8
CC[C@H](C)[C@@H](C(=O)N[C@@H](CC(C)C)C(=O)N[C@@H](CO)C(=O)N[C@@H](CO)C(=O)N[C@H](C(=O)N[C@@H](CC(N)=O)C(=O)N[C@H](C(=O)NCC(=O)N[C@@H](CO)C(=O)N[C@@H](CC(N)=O)C(=O)N[C@H](C(=O)N1CCC[C@H]1C(N)=O)[C@@H](C)O)C(C)C)[C@@H](C)O)N(C)C(=O)[C@H](C)NC(=O)CN(C)C(=O)[C@H](Cc1ccccc1)NC(=O)[C@H](CC(N)=O)NC(=O)[C@H](CC(N)=O)NC(=O)[C@H](CO)NC(=O)[C@H](CO)NC(=O)[C@H](CCCNC(=N)N)NC(=O)[C@H](Cc1c[nH]cn1)NC(=O)[C@H](CC(C)C)NC(=O)[C@H](Cc1ccccc1)NC(=O)[C@H](CCC(=O)O)NC(=O)[C@H](C)NC(=O)[C@H](CC(C)C)NC(=O)[C@H](CCCNC(=N)N)NC(=O)[C@H](CCC(N)=O)NC(=O)[C@@H](NC(=O)[C@H](C)NC(=O)[C@@H]1CSSC[C@H](NC(=O)[C@H](CCCNC(=N)N)NC(=O)CC[C@H](NC(=O)CCCCCCCCCCCCCCCCCCC(=O)O)C(=O)O)C(=O)N[C@@H](CC(N)=O)C(=O)N[C@@H]([C@@H](C)O)C(=O)N[C@@H](C)C(=O)N[C@@H]([C@@H](C)O)C(=O)N1)[C@@H](C)O [Compound 18, [19CD]-isoGlu-RC()NTATC()ATQRLAEFLHRSSNNF-Gly(Me)-A-Ile(Me)-LSSTNVGSNTP-NH2] ({C20 diacid-γGlu}-RCNTATCATQRLAEFLHRSSNNF[Sar]A[NMeI]LSSTNVGSNTP-NH2; disulfide 2-7) | SS (SS indicates solubility ≥ 1mg/ml) | SS (SS indicates solubility ≥ 1mg/ml) | SS (SS indicates solubility ≥ 1mg/ml) | SS (SS indicates solubility ≥ 1mg/ml) | SS (SS indicates solubility ≥ 1mg/ml) | SS (SS indicates solubility ≥ 1mg/ml) | SS (SS indicates solubility ≥ 1mg/ml) | 98 | 13 ± 0.8
